{
  "source": "patent US10500198B2",
  "about": "“Bis-benzylidine piperidone proteasome inhibitor with anticancer activity” (The Johns Hopkins University, priority 2013, dated 2019)",
  "key": {"[1]": {"assay": "Complete blood counts, blood chemistry and histopathology of healthy Balb/C mice"}, "[2]": {"assay": "Complete blood counts and blood chemistry of C57BL/6 mice carrying TC-1 tumor;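 also: blood drawn from the heart after euthanasia, cell counts read on an automated hemocytometer, heparinized plasma analyzed on an automated clinical chemistry analyzer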", "settings": "C57BL/6 mice with TC-1 tumor; nine doses every third day: RA190 40 mg/kg p.o., Bortezomib 1.5 mg/kg i.p.; mean ± SD, n = 3"}, "[3]": {"test_system": "HeLa cells", "assay": "Drug combination index assay", "format": "cell-based, human", "settings": "48 hr, read-out: IC50 (single agent, Compusyn)", "procedure": "The combination indices and a normalized isobologram were calculated using Compusyn software (www.combosyn.com)."}, "[4]": {"settings": "healthy Balb/C mice, 3 doses 40 mg/kg p.o. every third day, mean ± SD, n = 3"}},
  "note": "pIC50: −log10 of the molar value.",
  "data": [
    {"compound": "Cl.N[C@@H](Cc1ccccc1)C(=O)N1CC(=Cc2ccc(Cl)c(Cl)c2)C(=O)C(=Cc2ccc(Cl)c(Cl)c2)C1", "note": "[RA190, 3,5-bis(3,4-dichlorobenzylidene)-1-(S-2-amino-3-phenyl)-piperidin-4-one-HCl salt]", "values": [
      {"measurement": "ALBNEW (Albumin)", "setting": "[1]; [4]", "result": "3.03 ± 0.05"},
      {"measurement": "ALPNEW (Alkaline Phosphatase)", "setting": "[1]; [4]", "result": "84.33 ± 7.57"},
      {"measurement": "ALTNEW (Alanine Aminotransferase)", "setting": "[1]; [4]", "result": "39.66 ± 4.04"},
      {"measurement": "AMYL (Amylase)", "setting": "[1]; [4]", "result": "743 ± 29.4"},
      {"measurement": "ASTNEW (Aspartate aminotransferase)", "setting": "[1]; [4]", "result": "62.66 ± 11.01"},
      {"measurement": "BA(Basophils)", "setting": "[1]; [4]", "result": "0.06 ± 0.07"},
      {"measurement": "BUNNEW (Blood Urea Nitrogen)", "setting": "[1]; [4]", "result": "20 ± 2.64"},
      {"measurement": "CA (Calcium)", "setting": "[1]; [4]", "result": "9 ± 0.2"},
      {"measurement": "CHOL (Cholesterol)", "setting": "[1]; [4]", "result": "114 ± 12.12"},
      {"measurement": "CK_NEW (Creatinine Kinase)", "setting": "[1]; [4]", "result": "55.66 ± 25.48"},
      {"measurement": "CREAT (Creatinine)", "setting": "[1]; [4]", "result": "0.36 ± 0.05"},
      {"measurement": "EO (Eosinophils)", "setting": "[1]; [4]", "result": "0.24 ± 0.23"},
      {"measurement": "GGTNEW (Gamma-Glutamyl Transferase)", "setting": "[1]; [4]", "result": "4.33 ± 0.57"},
      {"measurement": "GLU (Glucose)", "setting": "[1]; [4]", "result": "175.33 ± 20.5"},
      {"measurement": "HCT(Hematocrit)", "setting": "[1]; [4]", "result": "55.66 ± 1.70"},
      {"measurement": "HDLNEW (High Density Lipoprotein)", "setting": "[1]; [4]", "result": "49 ± 5.29"},
      {"measurement": "Hb (Hemoglobin)", "setting": "[1]; [4]", "result": "14.63 ± 0.15"},
      {"measurement": "K (Potassium)", "setting": "[1]; [4]", "result": "6.05 ± 0.21"},
      {"measurement": "LDH (lactate Dehydrogenase)", "setting": "[1]; [4]", "result": "160 ± 37.51"},
      {"measurement": "LY(Lymphocytes)", "setting": "[1]; [4]", "result": "4.78 ± 1.89"},
      {"measurement": "MCH (Mean corpuscular hemoglobin)", "setting": "[1]; [4]", "result": "14.10 ± 0.2"},
      {"measurement": "MCHC (mean corpuscular hemoglobin concentration)", "setting": "[1]; [4]", "result": "26.33 ± 0.55"},
      {"measurement": "MCV (Mean corpuscular Volume)", "setting": "[1]; [4]", "result": "53.60 ± 0.26"},
      {"measurement": "MO(Monocytes)", "setting": "[1]; [4]", "result": "0.34 ± 0.28"},
      {"measurement": "MPV (Mean Platelet Volume)", "setting": "[1]; [4]", "result": "5.06 ± 0.37"},
      {"measurement": "NE(Neutrophils)", "setting": "[1]; [4]", "result": "2.43 ± 0.94"},
      {"measurement": "Na (Sodium)", "setting": "[1]; [4]", "result": "147.5 ± 0.70"},
      {"measurement": "PLT (Platelet)", "setting": "[1]; [4]", "result": "533 ± 61.65"},
      {"measurement": "RBC (red Blood Cells)", "setting": "[1]; [4]", "result": "10.38 ± 0.26"},
      {"measurement": "RDW (Red Blood Cell Distribution Width)", "setting": "[1]; [4]", "result": "17.23 ± 0.30"},
      {"measurement": "TBIL1 (Total bilirubin)", "setting": "[1]; [4]", "result": "0.26 ± 0.05"},
      {"measurement": "TPROT (Total protein)", "setting": "[1]; [4]", "result": "5.16 ± 0.05"},
      {"measurement": "TRIG (Triglycerides)", "setting": "[1]; [4]", "result": "107.33 ± 22.40"},
      {"measurement": "UA (Uric Acid)", "setting": "[1]; [4]", "result": "1.5 ± 0.26"},
      {"measurement": "WBC(White Blood Cells)", "setting": "[1]; [4]", "result": "7.88 ± 3.42"},
      {"measurement": "blood chemistry and hematologic panels versus vehicle", "setting": "[1]; three doses of 40 mg/kg p.o. every third day, euthanized on day 12", "result": "No significant difference"},
      {"measurement": "ALBNEW (Albumin)", "setting": "[2]", "result": "2.76 ± 0.23"},
      {"measurement": "ALPNEW (Alkaline Phosphatase)", "setting": "[2]", "result": "55.33 ± 6.50"},
      {"measurement": "ALTNEW (Alanine Aminotransferase)", "setting": "[2]", "result": "31.33 ± 2.30"},
      {"measurement": "AMYL (Amylase)", "setting": "[2]", "result": "621.33 ± 127"},
      {"measurement": "ASTNEW (Aspartate aminotransferase)", "setting": "[2]", "result": "50.33 ± 4.93"},
      {"measurement": "BA(Basophils)", "setting": "[2]", "result": "0.023 ± 0.011"},
      {"measurement": "BUNNEW (Blood Urea Nitrogen)", "setting": "[2]", "result": "26 ± 5.29"},
      {"measurement": "CA (Calcium)", "setting": "[2]", "result": "8.56 ± 0.23"},
      {"measurement": "CHOL (Cholesterol)", "setting": "[2]", "result": "67 ± 4.58"},
      {"measurement": "CK_NEW (Creatinine Kinase)", "setting": "[2]", "result": "131 ± 65.50"},
      {"measurement": "CREAT (Creatinine)", "setting": "[2]", "result": "0.46 ± 0.057"},
      {"measurement": "EO (Eosinophils)", "setting": "[2]", "result": "0.10 ± 0.01"},
      {"measurement": "GGTNEW (Gamma-Glutamyl Transferase)", "setting": "[2]", "result": "5.33 ± 0.57"},
      {"measurement": "GLU (Glucose)", "setting": "[2]", "result": "170.66 ± 6.11"},
      {"measurement": "HCT(Hematocrit)", "setting": "[2]", "result": "50.36 ± 2.45"},
      {"measurement": "HDLNEW (High Density Lipoprotein)", "setting": "[2]", "result": "40.33 ± 4.72"},
      {"measurement": "Hb (Hemoglobin)", "setting": "[2]", "result": "13.26 ± 1.00"},
      {"measurement": "LDH (lactate Dehydrogenase)", "setting": "[2]", "result": "172.06 ± 14.29"},
      {"measurement": "LY(Lymphocytes)", "setting": "[2]", "result": "1.87 ± 0.69"},
      {"measurement": "MCH (Mean corpuscular hemoglobin)", "setting": "[2]", "result": "13.60 ± 0.53"},
      {"measurement": "MCHC (mean corpuscular hemoglobin concentration)", "setting": "[2]", "result": "26.33 ± 0.75"},
      {"measurement": "MCV (Mean corpuscular Volume)", "setting": "[2]", "result": "51.66 ± 2.63"},
      {"measurement": "MO(Monocytes)", "setting": "[2]", "result": "0.25 ± 0.07"},
      {"measurement": "MPV (Mean Platelet Volume)", "setting": "[2]", "result": "5.36 ± 0.06"},
      {"measurement": "NE(Neutrophils)", "setting": "[2]", "result": "2.69 ± 0.45"},
      {"measurement": "PLT (Platelet)", "setting": "[2]", "result": "907 ± 45.92"},
      {"measurement": "RBC (red Blood Cells)", "setting": "[2]", "result": "9.77 ± 0.76"},
      {"measurement": "RDW (Red Blood Cell Distribution Width)", "setting": "[2]", "result": "18.00 ± 0.52"},
      {"measurement": "TBIL1 (Total bilirubin)", "setting": "[2]", "result": "0.233 ± 0.057"},
      {"measurement": "TPROT (Total protein)", "setting": "[2]", "result": "4.46 ± 0.11"},
      {"measurement": "UA (Uric Acid)", "setting": "[2]", "result": "2.86 ± 0.41"},
      {"measurement": "WBC(White Blood Cells)", "setting": "[2]", "result": "7.62 ± 4.17"},
      {"measurement": "pIC50", "setting": "[3]", "result": 6.74}
    ]}
  ]
}
